Measurements from patent US11851670B2, “Nucleic acid constructs encoding reprogramming factors linked by self-cleaving peptides” (Whitehead Institute for Biomedical Research, priority 2008, dated 2023).

Tests used:
NGFP3 secondary MEFs = assay: Effect of drugs on dox-induced reprogramming of secondary MEFs (GFP+ colony count); format: cell-based, mouse; settings: dox plus 1 μM compound for two 48 h periods
Excerpt: We also tested whether the secondary cells could be used to assess the effect of drugs on the efficiency of reprogramming. For this we explored the effects of the DNA demethylating compound 5-Aza-deoxycytidine (5-Aza) and the histone deacetylase inhibitor trichostatin A (TSA). Because of their action on chromatin modifications both small molecules are candidates to improve the 5reprogramming efficiency.
For MEF isolation, chimeric embryos were isolated at E13.5 and the head and internal (including reproductive) organs were removed. Remaining tissue was physically dissociated and incubated in trypsin at 37° C. for 20 minutes, after which cells were resuspended in MEF media containing puromycin (2 μg/mL) and expanded for two passages prior to freezing. Secondary MEFs used for the described experiments were thawed and experiments plated 1-2 passages after thawing. Kinetic experiments (FIG. 2) were performed by plating 4×10^4 secondary MEFs per well in 6 well plates and plates were stained or analyzed at the indicated times. Cell density experiments were performed in 12 well plates and GFP+ iPS colonies were scored 4 weeks after dox induction. Single cell efficiency experiments were performed by plating single secondary MEFs onto a layer of wildtype feeder MEFS in 96 well plates prior to dox induction (using limiting dilutions, which were confirmed by eye in replicate plates lacking feeder MEFs). iPS formation was scored 4 weeks later. Representative experiments from 2-3 biological replicates are shown. For 5-Aza and TSA experiments, […] secondary MEFs were plated in 6 well plates (approx 100 cells/mm^2) and pretreated with ES cell media containing 5-Aza (1 μM) or TSA (1 μM) for 48 h. After 48 h, secondary MEFs were cultured in ES cell media plus dox lacking 5-Aza or TSA. MEFS were exposed to 5-Aza or TSA for a second 48 h period between days 8-10 after induction, followed by culture with dox only until scoring GFP+ colonies on day 21.

mouse fibroblasts = settings: treatment decreasing global DNA methylation; cited from earlier work
huES cells = settings: cited from earlier work
ES cells = settings: chemically defined medium, absence of LIF; cited from earlier work
SOX2-ER fusion construct = assay: Tamoxifen-dependent activation of SOX2-ER fusion construct in transduced fibroblasts; format: cell-based, human; settings: cells transduced with SOX2-ER fusion construct
Excerpt: (a) DOX inducible lentivirus vectors: Following the same strategy as used for murine genes we have generated lentiviral vectors that transduce the human OCT4, SOX2, KLF4 and C-MYC c-DNAs either constitutively or under the control of a DOX inducible promoter [Brambrink, 2008 #6877]. To generate a DOX inducible system we infected human fibroblasts with a lentiviral vector carrying the rtTA transactivator. […] (b) Tamoxifen inducible lentivirus vectors: To enable independent inducible control of vectors we also generated OCT4, SOX2 and C-MYC estrogen receptor (ER) fusion constructs by fusing the factors to the estrogen ligand binding domain to allow for tamoxifen dependent expression [Grandori, 1996 #6505].

SMILES: Nc1ncn([C@H]2C[C@H](O)[C@@H](CO)O2)c(=O)n1 [5-Aza, 5-Aza-deoxycytidine]
- reprogramming efficiency (number of GFP+ colonies) (NGFP3 secondary MEFs; GFP+ colonies scored on day 21): increased the reprogramming efficiency
- reprogramming efficiency (number of GFP+ colonies) (NGFP3 secondary MEFs; GFP+ colonies scored on day 21, listed as 5-Aza-deoxycytidine): substantially enhances the reprogramming efficiency
- reprogramming of mouse fibroblasts (mouse fibroblasts): enhance reprogramming of mouse fibroblasts

SMILES: CC(/C=C/C(=O)NO)=C\[C@@H](C)C(=O)c1ccc(N(C)C)cc1 [TSA, trichostatin A]
- reprogramming efficiency (number of GFP+ colonies) (NGFP3 secondary MEFs; GFP+ colonies scored on day 21): no obvious effect on the number of colonies

SMILES: C[C@@H](N)[C@H]1CC[C@H](C(=O)Nc2ccncc2)CC1 [Y-27632]
- cloning efficiency (huES cells): increase cloning efficiency
- dissociation-induced apoptosis (huES cells): markedly diminish dissociation-induced apoptosis

SMILES: Cc1cc(Nc2ncc3c(n2)N(C)C(=O)N(c2cc(NC(=O)c4cccc(C(F)(F)F)c4)ccc2C)C3)n(C)n1 [pluripotin]
- self renewal of ES cells (ES cells): sustains self renewal of ES cells

SMILES: CC/C(=C(\c1ccccc1)c1ccc(OCCN(C)C)cc1)c1ccccc1 [tamoxifen]
- localisation of SOX2 protein after tamoxifen addition (SOX2-ER fusion construct): translocation of the SOX2 protein from the cytoplasm to the nucleus
